Patent US7119075B2, “Use of herbal agents for potentiation of bioefficacy of anti infectives” (priority 2003, dated 2006)
Converted amounts (≈) assume the structure as drawn.

What was measured:
Gram negative bacteria = test: organism not typed; assay type: cell-based; conditions: for MIC: read-out: MIC Drug alone
Gram positive bacteria = test: organism not typed; assay type: cell-based; conditions: for MIC: read-out: MIC Drug alone
[1] = test system: Klebsiella pneumoniae ATCC 75388; test: Inhibitory effect of bioenhancers alone; assay type: cell-based
Bacillus cereus RRL 02 = test: Inhibitory effect of bioenhancers alone; assay type: cell-based
[2] = test system: Methicillin Resistant Staphylococcus aureus (MRSA); test: Inhibitory effect of bioenhancers alone; assay type: cell-based
[3] = test system: Mycobacterium intracelluare ATCC 13950; test: Inhibitory effect of bioenhancers alone; assay type: cell-based
[4] = test system: Candida tropicalis ATCC 750; test: Inhibitory effect of bioenhancers alone; assay type: cell-based
Candida krusei ATCC 6258 = test: Inhibitory effect of bioenhancers alone; assay type: cell-based
Salmonella typhi AIIMS 2 = test: Inhibitory effect of bioenhancers alone; assay type: cell-based
[5] = test system: Mycobacterium avium ATCC 49601; test: Inhibitory effect of bioenhancers alone; assay type: cell-based
[6] = test system: Mycobacterium tuberculosis 615; test: Inhibitory effect of bioenhancers alone; assay type: cell-based
[7] = test system: Staphylococcus aureus ATCC 29313; test: Inhibitory effect of bioenhancers alone; assay type: cell-based
[8] = test system: Staphylococcus epidermidis ATCC 12228; test: Inhibitory effect of bioenhancers alone; assay type: cell-based
[9] = test system: Aspergillus fumigatus SI-1; test: Inhibitory effect of bioenhancers alone; assay type: cell-based
[10] = test system: Staphylococcus hemolyticus ATCC 29978; test: Inhibitory effect of bioenhancers alone; assay type: cell-based
[11] = test system: Mycobacterium tuberculosis H37Rv; test: Inhibitory effect of bioenhancers alone; assay type: cell-based
[12] = test system: Pseudomonas aeruginosa ATCC 27583; test: Inhibitory effect of bioenhancers alone; assay type: cell-based
[13] = test system: Escherichia coli ATCC 25922; test: Inhibitory effect of bioenhancers alone; assay type: cell-based
[14] = test system: Aspergillus flavus MTCC 1973; test: Inhibitory effect of bioenhancers alone; assay type: cell-based
M. tuberculosis = test: MIC of drugs alone and with bioenhancer (Table 7); assay type: cell-based; conditions: Mycobacterium tuberculosis, Drug alone
Yeast = test: MIC of drugs alone and with bioenhancer (Table 7); assay type: cell-based; conditions: Saccharomyces cerevisiae; read-out: MIC Drug alone
MRSA 450 = test: microbe, parasite or virus in culture; conditions: Staphylococcus aureus
MRSA 15187 = test: microbe, parasite or virus in culture; conditions: Staphylococcus aureus

For CCn1cc(C(=O)O)c(=O)c2cc(F)c(N3CCNCC3)cc21 [Norfloxacin], the “MIC Drug alone” value (Gram negative bacteria) was 0.03 to 64 µg/mL and the MIC (Gram positive bacteria) was 0.12 to 32 µg/mL (≈ 0.376 to 100 µM).

With “3′,5-Dihydroxy flavone 7-O-β-D-galacturonide-4′-O-β-D-glucopyranoside [pure molecule of Cuminum cyminum]” the inhibitory effect ([1]; conc. 0.2 μg/ml) was “++++ (No inhibition)”, the inhibitory effect ([1]; conc. 0.8 μg/ml) was “++++ (No inhibition)” and the inhibitory effect ([1]; conc. 3.12 μg/ml) was “++++ (No inhibition)”. For the same compound, the inhibitory effect ([1]; conc. 12.5 μg/ml) was “++++ (No inhibition)”, the inhibitory effect ([1]; conc. 50 μg/ml) was “++++ (No inhibition)” and the inhibitory effect ([1]; conc. 100 μg/ml) was “++++ (No inhibition)”. The inhibitory effect (Bacillus cereus RRL 02; conc. 0.2 μg/ml) was “++++ (No inhibition)”, the inhibitory effect (Bacillus cereus RRL 02; conc. 0.8 μg/ml) was “++++ (No inhibition)” and the inhibitory effect (Bacillus cereus RRL 02; conc. 3.12 μg/ml) was “++++ (No inhibition)”. For the same compound, the inhibitory effect (Bacillus cereus RRL 02; conc. 12.5 μg/ml) was “++++ (No inhibition)”, the inhibitory effect (Bacillus cereus RRL 02; conc. 50 μg/ml) was “++++ (No inhibition)” and the inhibitory effect (Bacillus cereus RRL 02; conc. 100 μg/ml) was “++++ (No inhibition)”. For the same compound, the inhibitory effect ([2]; conc. 0.2 μg/ml) was “++++ (No inhibition)”, the inhibitory effect ([2]; conc. 0.8 μg/ml) was “++++ (No inhibition)” and the inhibitory effect ([2]; conc. 3.12 μg/ml) was “++++ (No inhibition)”. The inhibitory effect ([2]; conc. 12.5 μg/ml) was “++++ (No inhibition)”, the inhibitory effect ([2]; conc. 50 μg/ml) was “++++ (No inhibition)” and the inhibitory effect ([2]; conc. 100 μg/ml) was “++++ (No inhibition)”. For the same compound, the inhibitory effect ([3]; conc. 0.2 μg/ml) was “++++ (No inhibition)”, the inhibitory effect ([3]; conc. 0.8 μg/ml) was “++++ (No inhibition)” and the inhibitory effect ([3]; conc. 3.12 μg/ml) was “++++ (No inhibition)”. The inhibitory effect ([3]; conc. 12.5 μg/ml) was “++++ (No inhibition)”, the inhibitory effect ([3]; conc. 50 μg/ml) was “++++ (No inhibition)” and the inhibitory effect ([3]; conc. 100 μg/ml) was “++++ (No inhibition)”. The inhibitory effect ([4]; conc. 0.2 μg/ml) was “++++ (No inhibition)”, the inhibitory effect ([4]; conc. 0.8 μg/ml) was “++++ (No inhibition)” and the inhibitory effect ([4]; conc. 3.12 μg/ml) was “++++ (No inhibition)”. For the same compound, the inhibitory effect ([4]; conc. 12.5 μg/ml) was “++++ (No inhibition)”, the inhibitory effect ([4]; conc. 50 μg/ml) was “++++ (No inhibition)” and the inhibitory effect ([4]; conc. 100 μg/ml) was “++++ (No inhibition)”. For the same compound, the inhibitory effect (Candida krusei ATCC 6258; conc. 0.2 μg/ml) was “++++ (No inhibition)”, the inhibitory effect (Candida krusei ATCC 6258; conc. 0.8 μg/ml) was “++++ (No inhibition)” and the inhibitory effect (Candida krusei ATCC 6258; conc. 3.12 μg/ml) was “++++ (No inhibition)”. For the same compound, the inhibitory effect (Candida krusei ATCC 6258; conc. 12.5 μg/ml) was “++++ (No inhibition)”, the inhibitory effect (Candida krusei ATCC 6258; conc. 50 μg/ml) was “++++ (No inhibition)” and the inhibitory effect (Candida krusei ATCC 6258; conc. 100 μg/ml) was “++++ (No inhibition)”. The inhibitory effect (Salmonella typhi AIIMS 2; conc. 0.2 μg/ml) was “++++ (No inhibition)”, the inhibitory effect (Salmonella typhi AIIMS 2; conc. 0.8 μg/ml) was “++++ (No inhibition)” and the inhibitory effect (Salmonella typhi AIIMS 2; conc. 3.12 μg/ml) was “++++ (No inhibition)”. The inhibitory effect (Salmonella typhi AIIMS 2; conc. 12.5 μg/ml) was “++++ (No inhibition)”, the inhibitory effect (Salmonella typhi AIIMS 2; conc. 50 μg/ml) was “++++ (No inhibition)” and the inhibitory effect (Salmonella typhi AIIMS 2; conc. 100 μg/ml) was “++++ (No inhibition)”. For the same compound, the inhibitory effect ([5]; conc. 0.2 μg/ml) was “++++ (No inhibition)”, the inhibitory effect ([5]; conc. 0.8 μg/ml) was “++++ (No inhibition)” and the inhibitory effect ([5]; conc. 3.12 μg/ml) was “++++ (No inhibition)”. For the same compound, the inhibitory effect ([5]; conc. 12.5 μg/ml) was “++++ (No inhibition)”, the inhibitory effect ([5]; conc. 50 μg/ml) was “++++ (No inhibition)” and the inhibitory effect ([5]; conc. 100 μg/ml) was “++++ (No inhibition)”. The inhibitory effect ([6]; conc. 0.2 μg/ml) was “++++ (No inhibition)”, the inhibitory effect ([6]; conc. 0.8 μg/ml) was “++++ (No inhibition)” and the inhibitory effect ([6]; conc. 3.12 μg/ml) was “++++ (No inhibition)”. For the same compound, the inhibitory effect ([6]; conc. 12.5 μg/ml) was “++++ (No inhibition)”, the inhibitory effect ([6]; conc. 50 μg/ml) was “++++ (No inhibition)” and the inhibitory effect ([6]; conc. 100 μg/ml) was “++++ (No inhibition)”. The inhibitory effect ([7]; conc. 0.2 μg/ml) was “++++ (No inhibition)”, the inhibitory effect ([7]; conc. 0.8 μg/ml) was “++++ (No inhibition)” and the inhibitory effect ([7]; conc. 3.12 μg/ml) was “++++ (No inhibition)”. For the same compound, the inhibitory effect ([7]; conc. 12.5 μg/ml) was “++++ (No inhibition)”, the inhibitory effect ([7]; conc. 50 μg/ml) was “++++ (No inhibition)” and the inhibitory effect ([7]; conc. 100 μg/ml) was “++++ (No inhibition)”. For the same compound, the inhibitory effect ([8]; conc. 0.2 μg/ml) was “++++ (No inhibition)”, the inhibitory effect ([8]; conc. 0.8 μg/ml) was “++++ (No inhibition)” and the inhibitory effect ([8]; conc. 3.12 μg/ml) was “++++ (No inhibition)”. For the same compound, the inhibitory effect ([8]; conc. 12.5 μg/ml) was “++++ (No inhibition)”, the inhibitory effect ([8]; conc. 50 μg/ml) was “++++ (No inhibition)” and the inhibitory effect ([8]; conc. 100 μg/ml) was “++++ (No inhibition)”. The inhibitory effect ([9]; conc. 0.2 μg/ml) was “++++ (No inhibition)”, the inhibitory effect ([9]; conc. 0.8 μg/ml) was “++++ (No inhibition)” and the inhibitory effect ([9]; conc. 3.12 μg/ml) was “++++ (No inhibition)”. For the same compound, the inhibitory effect ([9]; conc. 12.5 μg/ml) was “++++ (No inhibition)”, the inhibitory effect ([9]; conc. 50 μg/ml) was “++++ (No inhibition)” and the inhibitory effect ([9]; conc. 100 μg/ml) was “++++ (No inhibition)”. For the same compound, the inhibitory effect ([10]; conc. 0.2 μg/ml) was “++++ (No inhibition)”, the inhibitory effect ([10]; conc. 0.8 μg/ml) was “++++ (No inhibition)” and the inhibitory effect ([10]; conc. 3.12 μg/ml) was “++++ (No inhibition)”. For the same compound, the inhibitory effect ([10]; conc. 12.5 μg/ml) was “++++ (No inhibition)”, the inhibitory effect ([10]; conc. 50 μg/ml) was “++++ (No inhibition)” and the inhibitory effect ([10]; conc. 100 μg/ml) was “++++ (No inhibition)”. For the same compound, the inhibitory effect ([11]; conc. 0.2 μg/ml) was “++++ (No inhibition)”, the inhibitory effect ([11]; conc. 0.8 μg/ml) was “++++ (No inhibition)” and the inhibitory effect ([11]; conc. 3.12 μg/ml) was “++++ (No inhibition)”. The inhibitory effect ([11]; conc. 12.5 μg/ml) was “++++ (No inhibition)”, the inhibitory effect ([11]; conc. 50 μg/ml) was “++++ (No inhibition)” and the inhibitory effect ([11]; conc. 100 μg/ml) was “++++ (No inhibition)”. The inhibitory effect ([12]; conc. 0.2 μg/ml) was “++++ (No inhibition)”, the inhibitory effect ([12]; conc. 0.8 μg/ml) was “++++ (No inhibition)” and the inhibitory effect ([12]; conc. 3.12 μg/ml) was “++++ (No inhibition)”. For the same compound, the inhibitory effect ([12]; conc. 12.5 μg/ml) was “++++ (No inhibition)”, the inhibitory effect ([12]; conc. 50 μg/ml) was “++++ (No inhibition)” and the inhibitory effect ([12]; conc. 100 μg/ml) was “++++ (No inhibition)”. For the same compound, the inhibitory effect ([13]; conc. 0.2 μg/ml) was “++++ (No inhibition)”, the inhibitory effect ([13]; conc. 0.8 μg/ml) was “++++ (No inhibition)” and the inhibitory effect ([13]; conc. 3.12 μg/ml) was “++++ (No inhibition)”. For the same compound, the inhibitory effect ([13]; conc. 12.5 μg/ml) was “++++ (No inhibition)”, the inhibitory effect ([13]; conc. 50 μg/ml) was “++++ (No inhibition)” and the inhibitory effect ([13]; conc. 100 μg/ml) was “++++ (No inhibition)”. The inhibitory effect ([14]; conc. 0.2 μg/ml) was “++++ (No inhibition)”, the inhibitory effect ([14]; conc. 0.8 μg/ml) was “++++ (No inhibition)” and the inhibitory effect ([14]; conc. 3.12 μg/ml) was “++++ (No inhibition)”. The inhibitory effect ([14]; conc. 12.5 μg/ml) was “++++ (No inhibition)”, the inhibitory effect ([14]; conc. 50 μg/ml) was “++++ (No inhibition)” and the inhibitory effect ([14]; conc. 100 μg/ml) was “++++ (No inhibition)”.

CO[C@H]1/C=C/O[C@@]2(C)Oc3c(C)c(O)c4c(O)c(c(/C=N/N5CCN(C)CC5)c(O)c4c3C2=O)NC(=O)/C(C)=C\C=C\[C@H](C)[C@H](O)[C@@H](C)[C@@H](O)[C@@H](C)[C@H](OC(C)=O)[C@@H]1C [Rifampicin] gave an MIC (M. tuberculosis) of 0.06 to 0.5 µg/mL.

OC(Cn1cncn1)(Cn1cncn1)c1ccc(F)cc1F [Fluconazole] showed an MIC (Yeast) of 0.12 to 64 µg/mL.

For CO/N=C(\C(=O)N[C@@H]1C(=O)N2C(C(=O)O)=C(CSc3nc(=O)c(O)nn3C)CS[C@H]12)c1csc(N)n1 [Ceftrioxone], the “MIC Drug alone” value (Gram negative bacteria) was 0.03 to 32 µg/mL and the “MIC Drug alone” value (Gram positive bacteria; Drug alone) was 0.12 to 32 µg/mL.

N[C@@H](C(=O)N[C@@H]1C(=O)N2C(C(=O)O)=C(Cl)CS[C@H]12)c1ccccc1 [Cefaclor] was tested, and the MIC (Gram negative bacteria) was 0.25 to 64 µg/mL (≈ 0.68 to 174 µM) and the MIC (Gram positive bacteria) was 0.06 to 32 µg/mL (≈ 0.163 to 87 µM).

For O=C(O)c1cn(C2CC2)c2cc(N3CCNCC3)c(F)cc2c1=O [Ciprofloxacin], the MIC (MRSA 450) was 64 µg/mL (≈ 193 µM), the MIC (Gram negative bacteria) was 0.03 to 0.5 µg/mL (≈ 0.0905 to 1.51 µM) and the MIC (MRSA 15187) was 64 µg/mL (≈ 193 µM). The MIC (M. tuberculosis) was 0.5 to 1 µg/mL and the MIC (Gram positive bacteria) was 0.12 to 32 µg/mL (≈ 0.362 to 96.6 µM).

With NC(=O)c1cnccn1 [Pyrazinamide] the MIC (M. tuberculosis) was 6 to 60 µg/mL.

C=CC1=C(C(=O)O)N2C(=O)[C@@H](NC(=O)/C(=N\O)c3csc(N)n3)[C@H]2SC1 [Cefdinir] was tested, and the MIC (Gram negative bacteria) was 0.25 to 64 µg/mL (≈ 0.632 to 162 µM) and the MIC (Gram positive bacteria) was 0.06 to 32 µg/mL (≈ 0.152 to 80.9 µM).
